Experimental findings from patent US5346896A, “1-(aryl or heteroaryl)-4[ω-(aryl or heteroaryl)ω-(aryl or heteroaryl)alkylene]piperazines” (John Wyeth & Brother, Limited, priority 1990, dated 1994) are described below.

Each structure is given as a SMILES string.

For this assay, the target named is T1, 5-HT1A receptor (Rattus norvegicus, UniProt P19327).
T1 construct: rat hippocampal membrane homogenate; from tissue; host or cells: rat hippocampus, membrane homogenate
T1 sequence (P19327 1-422): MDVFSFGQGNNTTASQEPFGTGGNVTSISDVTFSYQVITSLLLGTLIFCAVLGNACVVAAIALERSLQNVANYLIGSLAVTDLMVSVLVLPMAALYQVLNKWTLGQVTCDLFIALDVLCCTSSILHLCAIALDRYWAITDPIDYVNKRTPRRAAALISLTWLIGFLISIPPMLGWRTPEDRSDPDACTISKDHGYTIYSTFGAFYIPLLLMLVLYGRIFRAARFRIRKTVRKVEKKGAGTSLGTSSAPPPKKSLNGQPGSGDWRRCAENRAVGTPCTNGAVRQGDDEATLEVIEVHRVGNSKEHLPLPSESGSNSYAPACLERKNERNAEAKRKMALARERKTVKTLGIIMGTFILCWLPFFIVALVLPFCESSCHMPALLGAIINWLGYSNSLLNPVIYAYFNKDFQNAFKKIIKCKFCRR
Kind of assay: 5-HT1A receptor binding activity in rat hippocampal membrane homogenate. The settings on record: method of Alexander and Wood. The procedure: The compounds of the invention are tested for 5-HT1A receptor binding activity in rat hippocampal membrane homogenate by the method of B. S. Alexander and M. D. Wood, J Pharm Pharmacol, 1988, 40, 888-891.

`COc1ccccc1N1CCN(CC(c2ccccn2)C(O)c2ccccc2)CC1` (stereo not shown) [Example 2]: the IC50 (in general, the concentration at which inhibition is half-maximal) turned out to be 20 nM.
